According to ChEMBL document CHEMBL3351502, “Flavones: an important scaffold for medicinal chemistry” (Eur J Med Chem, 2014):
In brackets after ≈: the same amount, converted by molar mass.

Columns and labels:
[1] = Competitive inhibition of muscarinic receptor (unknown origin); design: species or system Homo sapiens
[2] = target: Benzodiazepine receptors; peripheral & central; experiment: Binding affinity to benzodiazepine receptor (unknown origin); type: protein assay, Homo sapiens
Adenosine receptor A3 = target: T1, Adenosine receptor A3 (Homo sapiens, UniProt P0DMS8); experiment: Binding affinity to human adenosine A3 receptor
T1 sequence (P0DMS8 whole entry): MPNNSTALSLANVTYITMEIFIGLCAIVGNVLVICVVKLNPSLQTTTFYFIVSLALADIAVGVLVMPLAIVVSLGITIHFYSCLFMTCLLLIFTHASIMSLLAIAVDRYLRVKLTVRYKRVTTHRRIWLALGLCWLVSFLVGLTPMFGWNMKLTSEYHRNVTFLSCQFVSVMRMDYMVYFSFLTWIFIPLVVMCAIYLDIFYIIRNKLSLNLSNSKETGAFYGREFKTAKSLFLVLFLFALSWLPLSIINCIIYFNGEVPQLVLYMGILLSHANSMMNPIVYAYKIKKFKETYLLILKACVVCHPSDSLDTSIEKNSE

[3] = target: T2, Human immunodeficiency virus type 1 integrase (Human immunodeficiency virus 1, UniProt Q7ZJM1); experiment: Inhibition of HIV-1 integrase terminal cleavage activity
T2 sequence (Q7ZJM1 whole entry): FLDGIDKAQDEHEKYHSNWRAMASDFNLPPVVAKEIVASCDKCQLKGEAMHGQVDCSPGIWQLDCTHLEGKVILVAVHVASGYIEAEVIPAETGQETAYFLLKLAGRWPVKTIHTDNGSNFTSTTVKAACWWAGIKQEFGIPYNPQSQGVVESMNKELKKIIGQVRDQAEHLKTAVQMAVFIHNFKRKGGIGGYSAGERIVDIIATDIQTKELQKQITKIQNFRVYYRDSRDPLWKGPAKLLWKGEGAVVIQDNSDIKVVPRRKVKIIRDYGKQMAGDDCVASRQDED

[4] = target: T2, Human immunodeficiency virus type 1 integrase; experiment: Inhibition of HIV-1 integrase strand transfer activity
[5] = Inhibition of alpha glucosidase (unknown origin); design: species or system Homo sapiens
[6] = Inhibition of advanced glycation end product formation; type: physicochemical
[7] = target: 4-aminobutyrate aminotransferase, mitochondrial (Homo sapiens, UniProt P80404); experiment: Inhibition of GABA transaminase (unknown origin)
Acetylcholinesterase = Acetylcholinesterase (Homo sapiens, UniProt P22303); experiment: Inhibition of AChE (unknown origin)
Chain of Acetylcholinesterase (P22303 whole entry): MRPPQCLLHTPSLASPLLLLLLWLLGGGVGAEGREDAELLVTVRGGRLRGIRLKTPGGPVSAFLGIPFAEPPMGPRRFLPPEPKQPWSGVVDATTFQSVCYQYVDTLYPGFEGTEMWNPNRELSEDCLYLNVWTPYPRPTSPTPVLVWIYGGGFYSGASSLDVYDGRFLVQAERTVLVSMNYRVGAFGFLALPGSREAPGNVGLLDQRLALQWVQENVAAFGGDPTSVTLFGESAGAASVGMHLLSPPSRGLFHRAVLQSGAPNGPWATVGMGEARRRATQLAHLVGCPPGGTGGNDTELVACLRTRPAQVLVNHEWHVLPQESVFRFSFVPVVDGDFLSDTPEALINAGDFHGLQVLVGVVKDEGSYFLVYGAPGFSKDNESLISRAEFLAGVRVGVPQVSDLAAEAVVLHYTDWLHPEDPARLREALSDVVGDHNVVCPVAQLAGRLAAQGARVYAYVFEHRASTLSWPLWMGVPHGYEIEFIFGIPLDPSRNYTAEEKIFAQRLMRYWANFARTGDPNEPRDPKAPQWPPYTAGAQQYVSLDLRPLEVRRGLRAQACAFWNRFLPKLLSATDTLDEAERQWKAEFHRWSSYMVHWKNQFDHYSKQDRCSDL

[8] = target: Telomerase reverse transcriptase (Homo sapiens, UniProt O14746); experiment: Inhibition of telomerase activity (unknown origin)
Chain of Telomerase reverse transcriptase (O14746 whole entry): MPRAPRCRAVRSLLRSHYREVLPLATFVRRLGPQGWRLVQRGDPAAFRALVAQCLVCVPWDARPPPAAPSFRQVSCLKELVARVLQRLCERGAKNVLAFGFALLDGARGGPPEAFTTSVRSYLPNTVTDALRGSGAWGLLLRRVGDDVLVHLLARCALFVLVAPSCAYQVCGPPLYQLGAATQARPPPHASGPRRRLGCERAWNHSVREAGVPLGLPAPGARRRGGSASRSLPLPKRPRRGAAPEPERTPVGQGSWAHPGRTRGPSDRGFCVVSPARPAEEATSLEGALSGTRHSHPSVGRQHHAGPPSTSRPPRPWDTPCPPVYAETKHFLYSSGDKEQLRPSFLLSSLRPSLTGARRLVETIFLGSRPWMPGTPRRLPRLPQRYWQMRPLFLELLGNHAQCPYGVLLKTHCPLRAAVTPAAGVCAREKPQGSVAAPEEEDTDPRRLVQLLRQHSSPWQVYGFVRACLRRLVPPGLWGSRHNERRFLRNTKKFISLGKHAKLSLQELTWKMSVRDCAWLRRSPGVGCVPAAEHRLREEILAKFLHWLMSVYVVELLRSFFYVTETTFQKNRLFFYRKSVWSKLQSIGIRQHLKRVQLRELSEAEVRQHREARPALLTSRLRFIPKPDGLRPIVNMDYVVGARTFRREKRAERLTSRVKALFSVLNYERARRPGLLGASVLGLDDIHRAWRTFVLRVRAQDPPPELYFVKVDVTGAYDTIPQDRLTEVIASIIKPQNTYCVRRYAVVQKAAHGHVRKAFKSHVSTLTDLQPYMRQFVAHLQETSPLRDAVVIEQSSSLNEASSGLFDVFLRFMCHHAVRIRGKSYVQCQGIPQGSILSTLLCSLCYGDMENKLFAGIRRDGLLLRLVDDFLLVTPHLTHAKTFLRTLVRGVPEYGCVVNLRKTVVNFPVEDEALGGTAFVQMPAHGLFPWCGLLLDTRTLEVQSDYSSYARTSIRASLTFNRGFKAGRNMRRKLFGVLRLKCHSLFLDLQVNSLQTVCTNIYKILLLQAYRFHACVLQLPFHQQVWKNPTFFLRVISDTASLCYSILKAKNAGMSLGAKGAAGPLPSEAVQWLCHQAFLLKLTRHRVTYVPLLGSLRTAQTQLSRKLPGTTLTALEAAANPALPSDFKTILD

Plasmodium falciparum = experiment: Antimicrobial activity against Plasmodium falciparum; type: functional, organism-based
Leishmania = experiment: Leishmanicidal activity against Leishmania; type: functional, organism-based
LNCaP = experiment: Downregulation of prostate specific antigen secretion in human LNCAP cells; type: functional, cell-based
[9] = target: Xanthine dehydrogenase/oxidase (Homo sapiens, UniProt P47989); experiment: Inhibition of xanthine oxidase (unknown origin)
Chain of Xanthine dehydrogenase/oxidase (P47989 whole entry): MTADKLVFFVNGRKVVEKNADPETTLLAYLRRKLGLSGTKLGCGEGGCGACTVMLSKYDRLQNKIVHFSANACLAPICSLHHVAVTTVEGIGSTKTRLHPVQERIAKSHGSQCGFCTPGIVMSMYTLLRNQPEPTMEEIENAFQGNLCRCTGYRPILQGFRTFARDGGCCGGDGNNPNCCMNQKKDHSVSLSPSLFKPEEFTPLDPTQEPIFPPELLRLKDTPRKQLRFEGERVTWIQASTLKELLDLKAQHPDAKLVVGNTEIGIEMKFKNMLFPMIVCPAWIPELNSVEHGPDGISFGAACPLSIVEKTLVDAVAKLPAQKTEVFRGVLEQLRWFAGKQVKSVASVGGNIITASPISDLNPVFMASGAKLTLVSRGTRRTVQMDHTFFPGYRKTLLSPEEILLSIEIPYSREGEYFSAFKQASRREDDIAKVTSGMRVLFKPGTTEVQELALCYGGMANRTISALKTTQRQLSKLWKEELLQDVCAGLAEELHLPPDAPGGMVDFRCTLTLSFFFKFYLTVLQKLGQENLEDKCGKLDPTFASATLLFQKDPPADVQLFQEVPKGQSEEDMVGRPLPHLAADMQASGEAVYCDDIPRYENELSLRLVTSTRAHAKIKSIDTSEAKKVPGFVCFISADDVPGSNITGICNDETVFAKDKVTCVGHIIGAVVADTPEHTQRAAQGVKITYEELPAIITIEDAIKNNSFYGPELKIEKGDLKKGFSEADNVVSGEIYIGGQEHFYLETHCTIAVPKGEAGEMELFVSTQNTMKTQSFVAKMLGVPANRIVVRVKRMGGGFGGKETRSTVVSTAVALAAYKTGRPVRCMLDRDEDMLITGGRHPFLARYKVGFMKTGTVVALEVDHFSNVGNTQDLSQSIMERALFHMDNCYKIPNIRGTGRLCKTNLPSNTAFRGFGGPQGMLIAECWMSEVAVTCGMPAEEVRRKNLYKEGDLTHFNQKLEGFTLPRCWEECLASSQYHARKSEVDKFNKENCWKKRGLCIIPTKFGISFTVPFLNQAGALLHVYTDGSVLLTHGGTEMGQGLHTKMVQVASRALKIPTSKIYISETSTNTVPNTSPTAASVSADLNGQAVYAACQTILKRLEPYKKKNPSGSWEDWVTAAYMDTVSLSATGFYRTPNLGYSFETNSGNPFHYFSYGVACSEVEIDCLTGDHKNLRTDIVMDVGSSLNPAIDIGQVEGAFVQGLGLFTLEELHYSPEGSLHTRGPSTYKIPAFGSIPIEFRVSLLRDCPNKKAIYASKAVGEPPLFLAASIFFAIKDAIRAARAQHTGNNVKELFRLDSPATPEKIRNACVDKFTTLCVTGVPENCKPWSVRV

Homo sapiens = organism: Homo sapiens; experiment: Inhibition of alpha glucosidase (unknown origin) at 0.5 mg/ml
Staphylococcus aureus = experiment: Antimicrobial activity against Staphylococcus aureus; type: functional
[10] = target: T3, Succinate-semialdehyde dehydrogenase, mitochondrial (Homo sapiens, UniProt P51649); experiment: Inhibition of SSADH (unknown origin)
T3 sequence (P51649 whole entry): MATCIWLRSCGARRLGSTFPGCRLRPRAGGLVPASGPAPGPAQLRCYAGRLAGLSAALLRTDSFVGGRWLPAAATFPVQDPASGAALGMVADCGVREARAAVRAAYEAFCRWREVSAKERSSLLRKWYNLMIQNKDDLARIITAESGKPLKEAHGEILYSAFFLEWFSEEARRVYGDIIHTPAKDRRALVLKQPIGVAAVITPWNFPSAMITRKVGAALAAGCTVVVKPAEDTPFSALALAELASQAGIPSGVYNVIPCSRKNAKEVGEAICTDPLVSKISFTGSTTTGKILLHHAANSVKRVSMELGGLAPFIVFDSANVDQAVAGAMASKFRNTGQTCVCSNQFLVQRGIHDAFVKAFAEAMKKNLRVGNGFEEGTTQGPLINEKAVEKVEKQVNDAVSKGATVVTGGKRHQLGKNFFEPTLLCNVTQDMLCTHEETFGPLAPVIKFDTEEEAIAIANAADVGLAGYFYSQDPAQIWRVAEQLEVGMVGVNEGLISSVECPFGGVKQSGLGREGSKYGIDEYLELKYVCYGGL

Rattus norvegicus = organism: Rattus norvegicus; experiment: Antiulcer activity in rat assessed as protection from indomethacin-induced gastric damage; type: functional; details: Stomach
[11] = target: T4, Cystic fibrosis transmembrane conductance regulator (Homo sapiens, UniProt P13569); experiment: Inhibition of forskolin-stimulated CFTR (unknown origin)
T4 sequence (P13569 whole entry): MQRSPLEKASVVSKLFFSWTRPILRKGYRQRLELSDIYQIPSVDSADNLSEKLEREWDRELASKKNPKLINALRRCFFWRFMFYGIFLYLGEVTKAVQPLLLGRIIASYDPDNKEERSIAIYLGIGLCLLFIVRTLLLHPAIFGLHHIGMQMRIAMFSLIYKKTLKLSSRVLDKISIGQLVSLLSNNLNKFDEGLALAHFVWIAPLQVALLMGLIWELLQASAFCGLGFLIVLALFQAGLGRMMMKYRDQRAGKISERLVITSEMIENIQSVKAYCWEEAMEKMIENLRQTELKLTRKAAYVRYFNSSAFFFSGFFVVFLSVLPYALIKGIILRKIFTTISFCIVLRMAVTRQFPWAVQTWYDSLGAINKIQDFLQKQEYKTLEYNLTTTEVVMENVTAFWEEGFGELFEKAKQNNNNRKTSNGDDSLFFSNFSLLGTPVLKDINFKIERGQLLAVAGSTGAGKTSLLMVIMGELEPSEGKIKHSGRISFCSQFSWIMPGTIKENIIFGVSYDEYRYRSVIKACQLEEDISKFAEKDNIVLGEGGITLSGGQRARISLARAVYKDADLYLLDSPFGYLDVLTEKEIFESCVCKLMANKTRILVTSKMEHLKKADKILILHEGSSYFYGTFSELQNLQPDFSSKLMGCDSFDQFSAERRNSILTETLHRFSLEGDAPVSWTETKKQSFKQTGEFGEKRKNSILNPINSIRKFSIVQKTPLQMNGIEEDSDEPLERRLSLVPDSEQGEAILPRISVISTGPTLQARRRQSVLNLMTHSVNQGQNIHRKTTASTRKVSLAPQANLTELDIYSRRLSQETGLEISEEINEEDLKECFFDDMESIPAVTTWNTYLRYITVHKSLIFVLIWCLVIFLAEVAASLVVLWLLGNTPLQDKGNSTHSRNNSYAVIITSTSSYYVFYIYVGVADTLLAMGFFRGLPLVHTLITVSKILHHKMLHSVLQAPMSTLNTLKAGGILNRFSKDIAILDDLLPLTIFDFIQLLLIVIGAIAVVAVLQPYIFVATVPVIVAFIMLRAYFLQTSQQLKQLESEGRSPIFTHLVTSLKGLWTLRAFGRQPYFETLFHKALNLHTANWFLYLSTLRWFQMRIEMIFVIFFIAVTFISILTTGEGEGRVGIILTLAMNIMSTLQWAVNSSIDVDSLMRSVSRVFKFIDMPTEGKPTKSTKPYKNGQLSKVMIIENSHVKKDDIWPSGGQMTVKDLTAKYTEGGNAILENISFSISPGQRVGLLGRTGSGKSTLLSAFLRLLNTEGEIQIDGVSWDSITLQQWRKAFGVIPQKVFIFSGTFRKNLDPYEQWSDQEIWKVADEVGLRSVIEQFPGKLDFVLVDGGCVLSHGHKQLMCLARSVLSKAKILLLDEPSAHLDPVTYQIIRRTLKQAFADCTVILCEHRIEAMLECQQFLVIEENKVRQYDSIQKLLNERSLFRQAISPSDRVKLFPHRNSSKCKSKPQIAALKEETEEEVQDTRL

[12] = target: T4, Cystic fibrosis transmembrane conductance regulator; experiment: Stimulation of CFTR (unknown origin)

`COc1c(OC)c(OC)c2c(=O)c(OC)c(-c3ccc4c(c3)OCO4)oc2c1OC` showed a Ki [1] of 76.5 µM.
`O=c1cc(-c2cccc([N+](=O)[O-])c2)oc2ccc([N+](=O)[O-])cc12` showed a Ki [2] of 0.0015 µM.
With `Cc1ccc(-c2oc3ccc(Cl)cc3c(=O)c2O)c(OC(C)C)c1` the Ki (Adenosine receptor A3) was 0.56 µM.
In the case of `O=c1cc(-c2ccc(O)c(O)c2)oc2cc(O[C@@H]3O[C@H](CO)[C@@H](O)[C@H](O)[C@H]3OS(=O)(=O)O)cc(O)c12`, the IC50 [3] is reported as 2100 µM and the IC50 [4] is reported as 400 µM.
Compound `O=c1cc(-c2ccccc2)oc2cc(O)c(O)c(O)c12` [BAICALEIN] has an IC50 [5] of 52 µM, an IC50 [6] of 93 µM and an IC50 [7] of 12800 µM.
With `O=c1cc(-c2ccc(CN3CCCCC3)cc2)oc2ccccc12` the IC50 (Acetylcholinesterase) was 0.055 µM.
Compound `O=c1cc(-c2cccc([N+](=O)[O-])c2)oc2ccc(Br)cc12` has a Ki [2] of 0.0015 µM.
Work on `O=c1cc(-c2ccc(OCc3ccc(Cl)nc3)cc2)oc2cc(OCc3ccc(Cl)nc3)ccc12` yielded an IC50 [8] of 36.5 µM.
`O=c1cc(-c2ccc(Oc3c(O)cc(O)c4c(=O)cc(-c5ccc(O)cc5)oc34)cc2)oc2cc(O)cc(O)c12` [LANAROFLAVONE] gave an IC50 (Plasmodium falciparum) of 0.48 µM.
In the case of `O=C1c2c(O)cc(O)cc2O[C@H](c2ccc(O)cc2)[C@H]1[C@@H]1C(=O)c2c(O)cc(O)cc2O[C@H]1c1ccc(O)cc1`, the IC50 (Plasmodium falciparum) is reported as 7.3 µM.
For `O=c1cc(-c2ccc(OCCOCCN(CCOCCOc3ccc(-c4cc(=O)c5ccccc5o4)cc3)Cc3ccncc3)cc2)oc2ccccc12`, the IC50 (Leishmania) was 0.13 µM.
In the case of `O=c1cc(-c2ccc(O)c(O)c2)oc2cc(O)cc(O)c12` [LUTEOLIN], the IC50 (LNCaP) is reported as 5 µM, the IC50 [6] is reported as 99 µM and the Ki [9] is reported as 2.9 µM. It also gave an inhibition (Homo sapiens) of 36%.
Work on `N=C(NC1CCCCC1)c1ccc2nc(-c3ccc4oc(-c5ccccc5)cc(=O)c4c3)[nH]c2c1` yielded an MIC (Staphylococcus aureus) of 1.56 µg/mL (≈ 3.37 µM).
`O=c1cc(-c2ccc(O)cc2)oc2cc(O)c(O)c(O)c12` [SCUTELLAREIN] showed an IC50 [10] of 7200 µM.
`COc1cc([C@H]2Oc3cc(-c4cc(=O)c5ccccc5o4)ccc3O[C@@H]2CO)ccc1O` showed an MIC (Staphylococcus aureus) of 0.08 µg/mL (≈ 0.185 µM).
`COc1cc2oc(-c3ccc(CN4CCCC4)cc3)cc(=O)c2cc1OC` showed an IC50 (Acetylcholinesterase) of 0.034 µM.
In the case of `COc1cccc2oc(-c3ccc(F)cc3)cc(=O)c12`, the ED50 (Rattus norvegicus) is reported as 5.5 mg/kg.
Work on `Cc1ccc2oc(-c3cc(Br)ccc3O)cc(=O)c2c1` yielded a Ki [2] of 0.0009 µM.
For `O=c1cc(-c2ccc(O)cc2)oc2cc(O)cc(O)c12` [APIGENIN], the Ki [11] was 81 µM, the EC50 [12] was 9 µM and the Ki [9] was 0.52 µM.
